Reference: patent publication US20080051387A1, “TETRAHYDROPYRIDO[3,4-D]PYRIMIDINES AND RELATED ANALOGUES” (priority 2006, published 2008)

biological target: T1, chimeric human H3 receptor (Homo sapiens, UniProt Q9Y5N1); experiment: Chimeric human H3 receptor screening GTP binding assay (inhibition of histamine-stimulated GTP-gamma35S binding, Example 8); format: biochemical; details: symbol ! in Ki; test compound 4 μM, 1 μM histamine; read-out: percent inhibition of agonist-induced GTP-gammaS binding to H3
T1 construct: rat Galpha-i2 (Gnai2, rat); made in house; host or cells: Sf9 insect cells (baculovirus); P2 membranes
T1 sequence (Q9Y5N1 with tags, fused parts or gaps): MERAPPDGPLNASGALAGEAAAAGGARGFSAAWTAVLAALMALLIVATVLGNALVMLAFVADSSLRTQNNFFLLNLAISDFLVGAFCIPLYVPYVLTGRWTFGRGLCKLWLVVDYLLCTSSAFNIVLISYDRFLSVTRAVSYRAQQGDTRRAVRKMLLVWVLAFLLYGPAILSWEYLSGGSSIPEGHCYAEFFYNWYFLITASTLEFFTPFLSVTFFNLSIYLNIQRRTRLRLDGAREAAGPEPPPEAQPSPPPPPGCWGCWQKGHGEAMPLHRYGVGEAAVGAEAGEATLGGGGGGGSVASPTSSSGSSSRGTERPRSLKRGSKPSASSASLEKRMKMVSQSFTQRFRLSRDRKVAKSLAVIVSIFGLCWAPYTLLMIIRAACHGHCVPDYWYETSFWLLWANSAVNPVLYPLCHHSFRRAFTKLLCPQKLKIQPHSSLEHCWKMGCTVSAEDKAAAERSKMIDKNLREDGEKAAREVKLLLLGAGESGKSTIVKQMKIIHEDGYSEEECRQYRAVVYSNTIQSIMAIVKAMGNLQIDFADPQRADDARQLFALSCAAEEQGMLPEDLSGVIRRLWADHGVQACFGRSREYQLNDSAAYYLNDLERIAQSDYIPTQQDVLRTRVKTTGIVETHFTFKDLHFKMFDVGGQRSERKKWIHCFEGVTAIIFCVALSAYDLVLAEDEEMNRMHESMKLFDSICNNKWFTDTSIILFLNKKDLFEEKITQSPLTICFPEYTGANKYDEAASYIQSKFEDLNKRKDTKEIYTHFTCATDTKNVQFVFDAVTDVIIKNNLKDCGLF
Description: This Example illustrates a representative screening assay for evaluating inhibition of histamine-stimulated GTP-gamma^35S binding. Such GTP binding activity can be used to identify H3 antagonists and inverse agonists. A compound analyzed in this assay is referred to herein as a “test compound,” and the initial identification of antagonists and inverse agonists is performed using a test compound concentration of 4 μM.
Four independent baculoviral stocks (one directing the expression of the chimeric human H3 receptor and three directing the expression of each of the three subunits of a heterotrimeric G-protein) are used to infect a culture of Sƒ9 cells as described above. P2 membranes are prepared as described above, and are resuspended by Dounce homogenization (tight pestle) in GTP binding assay buffer (50 mM Tris pH 7.4, 120 mM NaCl, 5 mM MgCl2, 2 mM EGTA, 1 mg/ml BSA, 0.2 mg/ml bacitracin, 0.02 mg/ml aprotinin, 0.01 mg/ml saponin, 10 μM GDP) and added to assay tubes at a concentration of 35 μg protein/reaction tube. Non-radiolabeled test compounds are added to separate reactions at a concentration of 4 μM along with 1 μM histamine (agonist). Reactions are initiated by the addition of 125 pM GTP-gamma^35S with a final assay volume of 0.20 ml.
After a 60-min incubation at room temperature, reactions are terminated by vacuum filtration over GF/C filters (pre-soaked in 50 mM Tris pH 7.4, 120 mM NaCl plus 0.1% BSA) followed by washing with ice-cold buffer (50 mM Tris pH 7.4, 120 mM NaCl). The amount of receptor-bound (and thereby membrane-bound) GTP-gamma^35S is determined by measuring the bound radioactivity, preferably by liquid scintillation spectrometry of the washed filters. Non-specific binding is determined using 10 uM GTP-gammaS and typically represents less than 5 percent of total binding. After subtraction of non-specific binding, data is expressed as percent inhibition of 1 μM histamine signal.
Neutral antagonists are those test compounds that reduce the histamine-stimulated GTP binding activity towards, but not below, baseline levels. In contrast, in the absence of added histamine, inverse agonists reduce the GTP binding activity of the receptor-containing membranes below baseline. Any test compound that elevates GTP binding activity above baseline in the absence of added histamine in this assay is defined as having agonist activity.

Inhibition at 4 µM, ≥ 90%:
Fc1ccc(CN2CCc3c(ncnc3N3CCN(C4CCC4)CC3)C2)cc1 [Compound 68, 4-(4-cyclobutylpiperazin-1-yl)-7-(4-fluorobenzyl)-5,6,7,8-tetrahydropyrido[3,4-d]pyrimidine]
Cc1cccc(CN2CCc3c(ncnc3N3CCN(C4CCC4)CC3)C2)c1 [Compound 69, 4-(4-cyclobutylpiperazin-1-yl)-7-(3-methylbenzyl)-5,6,7,8-tetrahydropyrido[3,4-d]pyrimidine]
Cc1ccc(CN2CCc3c(ncnc3N3CCN(C4CCC4)CC3)C2)cc1 [Compound 70, 4-(4-cyclobutylpiperazin-1-yl)-7-(4-methylbenzyl)-5,6,7,8-tetrahydropyrido[3,4-d]pyrimidine]
Cn1ccnc1CN1CCc2c(ncnc2N2CCN(C3CCC3)CC2)C1 [Compound 71, 4-(4-cyclobutylpiperazin-1-yl)-7-[(1-methyl-1H-imidazol-2-yl)methyl]-5,6,7,8-tetrahydropyrido[3,4-d]pyrimidine]
c1ccc2c(CN3CCc4c(ncnc4N4CCN(C5CCC5)CC4)C3)ccnc2c1 [Compound 72, 4-(4-cyclobutylpiperazin-1-yl)-7-(quinolin-4-ylmethyl)-5,6,7,8-tetrahydropyrido[3,4-d]pyrimidine]
c1ccc2ncc(CN3CCc4c(ncnc4N4CCN(C5CCC5)CC4)C3)cc2c1 [Compound 73, 4-(4-cyclobutylpiperazin-1-yl)-7-(quinolin-3-ylmethyl)-5,6,7,8-tetrahydropyrido[3,4-d]pyrimidine]
Cc1cccc(CN2CCc3c(ncnc3N3CCN(C4CCC4)CC3)C2)n1 [Compound 74, 4-(4-cyclobutylpiperazin-1-yl)-7-[(6-methylpyridin-2-yl)methyl]-5,6,7,8-tetrahydropyrido[3,4-d]pyrimidine]
c1cncc(CN2CCc3c(ncnc3N3CCN(C4CCC4)CC3)C2)c1 [Compound 75, 4-(4-cyclobutylpiperazin-1-yl)-7-(pyridin-3-ylmethyl)-5,6,7,8-tetrahydropyrido[3,4-d]pyrimidine]
c1nc2c(c(N3CCN(C4CCC4)CC3)n1)CCN(Cc1ccc(N3CCOCC3)nc1)C2 [Compound 76, 4-(4-cyclobutylpiperazin-1-yl)-7-[(6-morpholin-4-ylpyridin-3-yl)methyl]-5,6,7,8-tetrahydropyrido[3,4-d]pyrimidine]
Cc1cc(CN2CCc3c(ncnc3N3CCN(C4CCC4)CC3)C2)n(C)n1 [Compound 77]
COc1ccccc1CN1CCc2c(ncnc2N2CCN(C3CCC3)CC2)C1 [Compound 78, 4-(4-cyclobutylpiperazin-1-yl)-7-(2-methoxybenzyl)-5,6,7,8-tetrahydropyrido[3,4-d]pyrimidine]
COc1ccc(CN2CCc3c(ncnc3N3CCN(C4CCC4)CC3)C2)c(OC)c1 [Compound 79, 4-(4-cyclobutylpiperazin-1-dimethoxybenzyl)-5,6,7,8-tetrahydropyrido[3,4-d]pyrimidine]
CC(C)c1ccc(CN2CCc3c(ncnc3N3CCN(C4CCC4)CC3)C2)cc1 [Compound 80]
CCN1CCc2c(ncnc2N2CCN(C3CCC3)CC2)C1 [Compound 81, 4-(4-cyclobutylpiperazin-1-yl)-7-ethyl-5,6,7,8-tetrahydropyrido[3,4-d]pyrimidine]
CC(C)CCN1CCc2c(ncnc2N2CCN(C3CCC3)CC2)C1 [Compound 82, 4-(4-cyclobutylpiperazin-1-yl)-7-(3-methylbutyl)-5,6,7,8-tetrahydropyrido[3,4-d]pyrimidine]
CCCCN1CCc2c(ncnc2N2CCN(C3CCC3)CC2)C1 [Compound 83, 7-butyl-4-(4-cyclobutylpiperazin-1-yl)-5,6,7,8-tetrahydropyrido[3,4-d]pyrimidine]
CCCCCN1CCc2c(ncnc2N2CCN(C3CCC3)CC2)C1 [Compound 84, 4-(4-cyclobutylpiperazin-1-yl)-7-pentyl-5,6,7,8-tetrahydropyrido[3,4-d]pyrimidine]
CCCCCCN1CCc2c(ncnc2N2CCN(C3CCC3)CC2)C1 [Compound 85, 4-(4-cyclobutylpiperazin-1-yl)-7-hexyl-5,6,7,8-tetrahydropyrido[3,4-d]pyrimidine]
CC(C)CN1CCc2c(ncnc2N2CCN(C3CCC3)CC2)C1 [Compound 86, 4-(4-cyclobutylpiperazin-1-yl)-7-isobutyl-5,6,7,8-tetrahydropyrido[3,4-d]pyrimidine]
CCC(C)CN1CCc2c(ncnc2N2CCN(C3CCC3)CC2)C1 (stereo not shown) [Compound 87, 4-(4-cyclobutylpiperazin-1-yl)-7-(2-methylbutyl)-5,6,7,8-tetrahydropyrido[3,4-d]pyrimidine]
CCC(CC)CN1CCc2c(ncnc2N2CCN(C3CCC3)CC2)C1 [Compound 88, 4-(4-cyclobutylpiperazin-1-yl)-7-(2-ethylbutyl)-5,6,7,8-tetrahydropyrido[3,4-d]pyrimidine]
c1nc2c(c(N3CCN(C4CCC4)CC3)n1)CCN(CC1CC1)C2 [Compound 89, 4-(4-cyclobutylpiperazin-1-yl)-7-(cyclopropylmethyl)-5,6,7,8-tetrahydropyrido[3,4-d]pyrimidine]
CCCC(C)CN1CCc2c(ncnc2N2CCN(C3CCC3)CC2)C1 (stereo not shown) [Compound 90, 4-(4-cyclobutylpiperazin-1-yl)-7-(2-methylpentyl)-5,6,7,8-tetrahydropyrido[3,4-d]pyrimidine]
Cc1ccc(CN2CCc3c(ncnc3N3CCN(C4CCC4)CC3)C2)cc1C [Compound 91, 4-(4-cyclobutylpiperazin-1-yl)-7-(3,4-dimethylbenzyl)-5,6,7,8-tetrahydropyrido[3,4-d]pyrimidine]
c1nc2c(c(N3CCN(C4CCC4)CC3)n1)CCN(Cc1ccc3c(c1)OCCO3)C2 [Compound 92, 4-(4-cyclobutylpiperazin-1-yl)-7-(2,3-dihydro-1,4-benzodioxin-6-ylmethyl)-5,6,7,8-tetrahydropyrido[3,4-d]pyrimidine]
c1ccc2nc(CN3CCc4c(ncnc4N4CCN(C5CCC5)CC4)C3)ccc2c1 [Compound 93, 4-(4-cyclobutylpiperazin-1-yl)-7-(quinolin-2-ylmethyl)-5,6,7,8-tetrahydropyrido[3,4-d]pyrimidine]
COc1cccc(CN2CCc3c(ncnc3N3CCN(C4CCC4)CC3)C2)c1OC [Compound 94, 4-(4-cyclobutylpiperazin-1-yl)-7-(2,3-dimethoxybenzyl)-5,6,7,8-tetrahydropyrido[3,4-d]pyrimidine]
COc1ccc(OC)c(CN2CCc3c(ncnc3N3CCN(C4CCC4)CC3)C2)c1 [Compound 95, 4-(4-cyclobutylpiperazin-1-yl)-7-(2,5-dimethoxybenzyl)-5,6,7,8-tetrahydropyrido[3,4-d]pyrimidine]
